Data: PMC4213378, “Pharmacokinetics and Efficacy of the Spleen Tyrosine Kinase Inhibitor R406 after Ocular Delivery for Retinoblastoma” (Pharmaceutical Research, 2014)

Assays:
[1] = Maximum solubility in PBS or saline; type: physicochemical; details: PBS; read-out: maximum solubility in PBS
[2] = Co-solvent solution formulation solubility matrix; type: physicochemical
[3] = Vitreous pharmacokinetics after oral or subconjunctival administration; type: in vivo, mouse
Method: For oral delivery of R788, the target dose of 25 mg/kg R788 was administered by oral gavage as a 4 mM solution in 0.01 N citrate buffer, pH 6 ([9]). For subconjunctival administration, R788 was prepared at a concentration of 4 mM in 2% PEG-800 and filtered through a 0.22 μm filter prior to use (see Table S1). R788 was also administered subconjunctivally as a suspension at a concentration of 25 mM in 10% 2-hydroxylpropyl-β-cyclodextrin (HPβCD, Sigma-Aldrich). For subconjunctival administration, R406 phenylsulfonate salt was administered at a concentration of 800–900 μM as a cosolvent solution in a formulation of 5% Cremaphor-eL, 0.5% ethanol, 0.2% Tween 80 and 94.3% PBS, filtered through a 0.22 μm filter prior to use (see Table S2). R406 phenylsulfonate salt was also administered subconjunctivally at a dose of 31.4 mM solution in DMSO. R406 free base was administered subconjunctivally at a concentration of 6.5 mM as a 25% castor oil (Sigma-Aldrich) emulsion. This emulsion was prepared by mixing castor oil: ethanol (1:1) solution of R406 (approx. 35 mM), in vacuo evaporation of the ethanol, and centrifugation to remove any excess R406, then emulsifying the R406 oil phase in an aqueous phase comprised of Cremaphor-eL, Tween 80 and PBS (final composition of the emulsion: 25% castor oil, 5% Cremaphor-eL, 0.2% Tween-80, 69.8% PBS) by probe sonication. For intravitreal injection, R788 solution was prepared by filtering a 0.12 mM (120 μM) solution of R788 in saline through a 0.22 μm filter. […] For topical delivery, 25–30 mM suspensions were prepared in 5% HPβCD. R406 or R788 concentration in all formulations was determined by UPLC prior to study (in cases where formulation was filtered before administration, concentration was determined post-filtering) Table I.
For the systemic delivery study R788 was administered as a single bolus dose (25 mg/kg, 10 mL/kg volume) by oral gavage. For the subconjunctival administration study R788 or R406 (10 µL of formulation) was injected into the subconjunctival space of an anesthetized mouse using a Hamilton microliter syringe (Hamilton company, Reno NV). For the intravitreal administration study, R788 (5 μL of […] in saline) was administered to each eye via direct injection. To perform the intravitreal injection, mice were anesthetized, a small incision between the sclera and the cornea was created with a […] needle, and the R788 was injected into the vitreous using a Hamilton microliter syringe. For the topical administration study, R406 (2 μL of 25–30 mM suspension) was applied as a drop to the surface of each eye of an anesthetized mouse.
At serial time points (0.5, 1, 2, 4, and 8 h post-injection, n = 3 for each time point), blood was collected by terminal cardiac puncture after isoflurane anesthesia. Whole-blood samples were centrifuged immediately at 10,000×g for 5 min at 4°C to separate plasma. Once the cardiac puncture and blood collection was completed, the animal was perfused with 10 mL of saline and euthanized by cervical dislocation. Eyes were removed, rinsed in PBS, gently patted dry, then rinsed and dried again. Eyes were dissected and vitreous was collected. Plasma and vitreous samples were put on dry ice immediately after collection and stored at −80°C until analysis. For quantitative analysis methods and assay validation methods and results, see Supplementary Information.
Plasma and vitreous concentration time data were analyzed using non-compartmental analysis in WinNonlin 6.2 (Pharsight, Mountain View, CA), providing PK parameters including Cmax (maximum observed concentration), Tmax (time to reach maximum observed concentration), AUC (area under the concentration time curve) and MRT (mean residence time). AUC and AUMC (area under the concentration time first moment curve) values were estimated with the linear trapezoidal method, with parameters calculated using mean concentration values at each time point. […]

[4] = test system: RB355 cells; assay: Activated caspase 3 immunostaining of RB355 cells; type: cell-based
[5] = local (subconjunctival), DMSO 31.4 mM, 314 nmol per eye, mice
[6] = local (subconjunctival), co-solvent solution 0.88 mM, 8.8 nmol per eye, mice

**Q.** For `COc1cc(Nc2ncc(F)c(Nc3ccc4c(n3)NC(=O)C(C)(C)O4)n2)cc(OC)c1OC.O=S(=O)(O)c1ccccc1` [R406 phenylsulfonate salt], which solubility [1] is on record?
**A.** 0.0004 mM

**Q.** And the “R406 Solubility” value ([2]; Trial 1: 0.1% Tyloxapol, 99.9% PBS)?
**A.** 11.7 mM

**Q.** What about the “R406 Solubility” value ([2]; Trial 4: 3% Glycerin, 97% PBS) of the same compound?
**A.** 0.4 mM

**Q.** What about the “R406 Solubility” value ([2]; Trial 5: 5% Cremaphor-eL, 95% PBS) of the same compound?
**A.** 170.1 mM

**Q.** What about the “R406 Solubility” value ([2]; Trial 6: 10% pG, 90% PBS) of the same compound?
**A.** 0.4 mM

**Q.** What about the “R406 Solubility” value ([2]; Trial 7: 15% pPG, 85% PBS) of the same compound?
**A.** 15 mM

**Q.** And the “R406 Solubility” value ([2]; Trial 8: 0.2% Tween-80, 99.8% PBS)?
**A.** 399.2 mM

**Q.** What about the “R406 Solubility” value ([2]; Trial 9: 100% PBS) of the same compound?
**A.** 0.4 mM

**Q.** What about the “R406 Solubility” value ([2]; Trial 10: 2% PEG-8000, 0.2% Tween-80, 97.8% PBS) of the same compound?
**A.** 0.4 mM

**Q.** And the “R406 Solubility” value ([2]; Trial 11: 0.5% EtOH, 0.2% Tween-80, 85.8% PBS)?
**A.** 0.6 mM

**Q.** And the “R406 Solubility” value ([2]; Trial 12: 3% Glycerin, 0.2% Tween-80, 96.8% PBS)?
**A.** 1.0 mM

**Q.** What about the “R406 Solubility” value ([2]; Trial 13: 5% Cremaphor-eL, 0.2% Tween-80, 94.8% PBS) of the same compound?
**A.** 178.0 mM

**Q.** And the “R406 Solubility” value ([2]; Trial 14: 10% pG, 0.2% Tween-80, 99.8% PBS)?
**A.** 0.9 mM

**Q.** What about the “R406 Solubility” value ([2]; Trial 15: 15% pPG, 0.2% Tween-80, 85.8% PBS) of the same compound?
**A.** 31.4 mM

**Q.** And the “R406 Solubility” value ([2]; Trial 16: 2% PEG-8000, 0.5% EtOH, 97.5% PBS)?
**A.** 1.5 mM

**Q.** And the “R406 Solubility” value ([2]; Trial 17: 2% PEG-8000, 3% Glycerin, 95% PBS)?
**A.** 0.4 mM

**Q.** What about the “R406 Solubility” value ([2]; Trial 18: 2% PEG-8000, 5% Cremaphor-eL, 93% PBS) of the same compound?
**A.** 144.0 mM

**Q.** And the “R406 Solubility” value ([2]; Trial 19: 2% PEG-8000, 10% pG, 88% PBS)?
**A.** 1.4 mM

**Q.** And the “R406 Solubility” value ([2]; Trial 20: 2% PEG-8000, 15% pPG, 83% PBS)?
**A.** 22.9 mM

**Q.** And the “R406 Solubility” value ([2]; Trial 21: 0.5% EtOH, 3% Glycerin, 96.5% PBS)?
**A.** 0.4 mM

**Q.** And the “R406 Solubility” value ([2]; Trial 22: 0.5% EtOH, 5% Cremaphor-eL, 94.5% PBS)?
**A.** 183.9 mM

**Q.** And the “R406 Solubility” value ([2]; Trial 24: 0.5% EtOH, 15% pPG, 84.5% PBS)?
**A.** 18.4 mM

**Q.** And the “R406 Solubility” value ([2]; Trial 25: 3% Glycerin, 5% Cremaphor-eL, 92% PBS)?
**A.** 183.9 mM

**Q.** What about the “R406 Solubility” value ([2]; Trial 26: 3% Glycerin, 10% pG, 87% PBS) of the same compound?
**A.** 0.4 mM

**Q.** What about the “R406 Solubility” value ([2]; Trial 27: 3% Glycerin, 15% pPG, 82% PBS) of the same compound?
**A.** 18.2 mM

**Q.** And the “R406 Solubility” value ([2]; Trial 28: 5% Cremaphor-eL, 10% pG, 85% PBS)?
**A.** 161.5 mM

**Q.** And the “R406 Solubility” value ([2]; Trial 29: 5% Cremaphor-eL, 15% pPG, 80% PBS)?
**A.** 138.0 mM

**Q.** What about the “R406 Solubility” value ([2]; Trial 30: 10% pG, 15% pPG, 75% PBS) of the same compound?
**A.** 23.3 mM

**Q.** What about the “R406 Solubility” value ([2]; Trial 32: 0.5% EtOH, 5% Cremaphor-eL, 0.2% Tween-80, 94.3% PBS) of the same compound?
**A.** 830.9 mM

**Q.** What about the “R406 Solubility” value ([2]; Trial 33: 0.5% EtOH, 3% Glycerin, 5% Cremaphor-eL, 0.2% Tween-80, 91.3% PBS) of the same compound?
**A.** 773.9 mM

**Q.** What about the “ratio of vitreous AUC to plasma AUC relative to R788 in suspension (250 nmol per eye)” value ([3]; R406 salt administered locally, 314 nmol total per eye) of the same compound?
**A.** 22 fold

**Q.** And the Cmax [3, 5]?
**A.** 892 ± 350 nM

**Q.** And the “Ratio Vitreous AUClast/Plasma AUClast” value [3, 5]?
**A.** 6.6

**Q.** What about the “Vitreous AUClast” value [3, 5] of the same compound?
**A.** 1,960 nM∙h

**Q.** What about the “Vitreous Dose normalized AUC” value [3, 5] of the same compound?
**A.** 3.1 nM∙h/nmol

**Q.** What about the “Vitreous MRT0-4h” value [3, 5] of the same compound?
**A.** 121 min

**Q.** And the “Vitreous Tlast” value [3, 5]?
**A.** 4 h

**Q.** What about the “Vitreous Tmax” value [3, 5] of the same compound?
**A.** 30 min

**Q.** And the “Vitreous MRT0-4h” value ([3]; local (subconjunctival), DMSO 31.4 mM, 314 nmol per eye, mice, listed as R406 salt)?
**A.** ≥ 120 min

**Q.** What about the Cmax [3, 6] of the same compound?
**A.** 41.3 ± 18 nM

**Q.** What about the “Vitreous AUClast” value [3, 6] of the same compound?
**A.** 33.7 nM·h

**Q.** What about the “Vitreous Dose normalized AUC” value [3, 6] of the same compound?
**A.** 1.9 nM∙h/nmol

**Q.** What about the “Vitreous MRT0-4h” value [3, 6] of the same compound?
**A.** 46.9 min

**Q.** What about the “Vitreous Tlast” value [3, 6] of the same compound?
**A.** 2 h

**Q.** And the “Vitreous Tmax” value [3, 6]?
**A.** 30 min

**Q.** What about the “Vitreous MRT0-4h” value ([3]; local (subconjunctival), co-solvent solution 0.88 mM, 8.8 nmol per eye, mice, listed as R406 salt) of the same compound?
**A.** less than 1 h

**Q.** For `COc1cc(Nc2ncc(F)c(Nc3ccc4c(n3)NC(=O)C(C)(C)O4)n2)cc(OC)c1OC` [R406], which “caspase 3+ activation compared to untreated or DMSO treated cells” value ([4]; 1 μM R406, any exposure time up to 48 h) is on record?
**A.** did not show any increase in caspase 3+ activation

**Q.** What about the “proportion of activated caspase 3+ cells” value ([4]; 2.5 and 5 μM R406, 0-72 h exposure) of the same compound?
**A.** increased with increasing exposure duration

**Q.** And the “minimal exposure required to kill retinoblastoma cells in culture” value ([4]; for at least 12 h)?
**A.** > 1 µM

**Q.** What about the “maximum intraocular concentration that could be reached from subconjunctival route” value ([3]; DMSO control, 31.4 mM R406 in DMSO, subconjunctival, mice) of the same compound?
**A.** approximately 1 μM

**Q.** What about the “maximal concentration achieved in the vitreous” value ([3]; subconjunctival, 10 μl of R406 solution formulation per eye, mice) of the same compound?
**A.** 0.05 µM
